# Results reported in US20060257875A1, “Affinity screening using "one-bead-one-compound" libraries” (Carlsberg A/S, priority 2003, published 2006).
# “And” between values parts separate entries of the source, which are not always exact repeats. Equal entries are not always repeated. “Also recorded” adds a separate entry of the source. Starred links: 1 amine or outer side, 2 acyl side, 3 side chain; linkers in the order of their positions; H or OH if unused. Non-standard residues stand in square brackets, D forms with d. Primed or numbered codes have the meaning given here. No end group written: not given here. Pip′ = 4-phenyl-piperidine-4-carboxylic acid, O=C(C1(c2ccccc2)CCN([*:1])CC1)[*:2]; Abi = 3-amino-3-(biphenyl)-propanoic acid; GlcNN = not defined here; Acm′ = not defined here; ManN = not defined here; ManS = not defined here
# Columns and labels:
# [1] = test system: normal (basal) myocyte protein mixtures; assay: Solid phase screening of Library 1 with labeled myocyte proteins; bound proteins identified by on-bead digest and peptide mass fingerprinting; assay type: binding, neonatal Wistar rats; settings: Library 1 ligand on PEGA4000 bead; Normal Myocytes; proteins primarily present in basal cells
# Protocol: (§1) Myocytes were prepared from 1 to 5 day old neonatal Wistar rats (University of Copenhagen) according to literature procedure described in Busk et al., 2002, Cardiovasc. Res., 56: 64-75 and plated into eight P10 culture plates at 6 million cells/plate.
# Protein was extracted from myocytes prepared as described above for Example 9, using a new procedure modified from existing protocols, primarily: Arrott, et al., 1998, Anal Biochem. 258: 1-18. The media was removed from plates and adhered cells were treated for 10 minutes with ice cold phosphate buffer (0.25 mL, 10 mM, pH 7.5, augmented with 0.15 M NaCl 60 mM Benzamidine HCl, 5 mM EDTA, 10 μg/n E-64, 10 μg/mL Leu-peptin, 10 μg/mL Pepstatin A, and 1 mM PMSF). The cells were scraped off the plates and then lysed (on ice) in a sonicator (2×) using 10 seconds off/10 seconds on cycles.
# (§2) The resulting suspension was augmented with CHAPS, DTT, and urea to a final concentration of CHAPS (1% w/v), DTT (5 mM), and urea (8 M). After 10-15 minutes on ice, the solution was centrifuged for 10 minutes at 15,000 rpm at 4° C. The supernatant was removed and protein content quantified using the NanoOrange Protein test (Molecular Probes, Eugene, Oreg.): Total protein recovered: 70.5 μg for PE-treated cells and 60 μg for basal cells.
# Fluorescent dye Oregon Green 514 (OR) (Molecular Probes) was used to label the healthy/basal cells while Rhodamine Red (RR) (Molecular Probes) was used to label the PE-treated cells. The labeling procedures were carried out according to the manufacturer's protocol. The protein solutions (0.25 mL, 50.4 μg for PE cells and 0.25 mL, 42.8 μg for basal cells) were dialyzed against a solution of 10 mM phosphate buffer, 0.15 M NaCl, pH 7.5 and then 1 M NaHCO3 (0.025 mL) added to a final pH of 8.5. 10 μL of dye in dry DMF (10 mg/mL) was added and the sample stirred at room temperature for 2 hours. The protein solution was dialyzed extensively against 10 mM phosphate buffer, 0.15 M NaCl, pH 7.5, to remove excess dye.
# Ligand library 1 (200 mg), prepared as described for Example 5, was transferred to a syringe fitted with a stop-valve and the ligand-beads were washed for 10 minutes (3×) with 10 mM phosphate buffer, pH 6.8, supplemented with 0.15 M NaCl, 1 mM Ca^2+, 1 mM Zn^2+, 1 mM Mn^2+, 1 mM Cu^2+, and 1 mM Mg^2+ (3 mL). The ligand-beads were treated with a 1% BSA solution for 30 minutes, then washed with buffer (1×). A mixture of labeled myocyte proteins, including both PE-induced protein (138 μL, 40 μg) and basal protein (167 μL, 40 μg) obtained as described above for Example 11, was prepared in 1.2 mL buffer, and added to the ligand library in the syringe. The proteins and ligand library were incubated at room temperature for 16 hours. The library was then washed with buffer for 5 minutes then with water for 3×5 minutes. The library was examined under a fluorescence microscope and brightly fluorescent red, green, and yellow beads (yellow indicative of both dyes red and green binding; the majority of the beads) were present, as well as unlabelled beads. The fluorescent beads were separated and retained for analysis.
# The fluorescent ligand library beads containing bound protein obtained as described in Example 15 were sorted using a COPAS (250) NF Bead Sorter (Union Biometrica, Somerville, Mass.) equipped with a single flourescence emission. Beads emitting fluorescence of only one color contain proteins from one physical state, e.g. proteins expressed only in the PE-induced hypertrophic state (red) or proteins expressed only in the basal state (green). Since the instrument measures one fluorescence emission at a time, beads containing one type of color fluorescence were first sorted and then beads were resorted for emissions from the other fluorescence color. The library was first sorted such that all beads containing significant green fluorescence, basal proteins from healthy myocytes, were isolated. […]
# basal myocyte protein = assay: Solid phase screening of Library 6 with unlabeled myocyte proteins; silver staining, on-bead tryptic digest; assay type: binding, neonatal Wistar rats; settings: Normal Myocytes
# Protocol: as §1
# Isolated proteins that bound to specific ligands were identified using peptide mass fingerprinting. Mass spectra were recorded on a Bruker Reflex m MALDI time-of-flight mass spectrometer (Bruker-Daltonics, Bremen, Germany) operated in the positive reflectron mode using delayed extraction. Measurements were performed using the following parameters: Power 83-84 V; lens 7.300. The sum of 200-300 shots was used for each spectrum.
# The spectra were calibrated using bradykinin peptide. In some cases, internal mass calibration was performed using a porcine trypsin autolysis product Peptide masses were searched against peptide mass maps in the National Center for Biotechnology Information (NCBI) database using the following search engines found on the world wide web (www.) for each of: • MS-FIT (prospector.ucsf.edu/ucsfhtml/msfit.htm), • Profound (129.85.19.192/profound_biniWebProFound.exe), and • MASCOT (matrixscience.com).
# A search was performed using the NCBI bacterial (E. coli) database and the mammalian databases for the isolated proteins from the E. coli and myocyte samples, respectively, and the Swiss Prot mammalian databases and the Swiss Prot viral databases were searched to identify the porcine macrophage proteins and proteins, respectively. A molecular mass range was estimated from 0-250 K Da, allowing a mass accuracy that varied from 0.1 Da (some cases 0.3 Da) for each peptide mass. A large pI range from 0-14 or 0-12 was considered for each search. If no proteins matched, the mass window was extended. Partial enzyme cleavages allowing for two missed cleavage sites and modification of cysteine by alkylation were considered in the search approaches. A protein was considered identified if the matched peptides covered at least 30% of the complete sequence. A match of less than 30% was considered in some cases, if prominent peaks were obtained. Usually, four or more peptides were used for identification. In some instances, hypothetical proteins or gene products, such as biochemical material, either RNA or protein, calculated from the expected expression of a gene and to which a function may be assigned based on sequence homology, were identified.
# Protein was extracted from myocytes prepared as described above for Example 9, using a new procedure (to preserve the activity of metalloproteases) modified from existing protocols, primarily: Amott, et al., 1998, Anal. Biochem. 258: 1-18. The media was removed from plates and cells were washed with ice cold phosphate buffer (5 ml, 10 mM, pH 7.5, supplemented with 0.15 M NaCl,) to remove traces of media components. The adhered cells were treated for 10 minutes with ice cold phosphate buffer (2 mL, 10 mM, pH 7.5, augmented with 0.15 M NaCl, […] E-64, 10 μg/mL Leupeptin, and 10 μg/mL Pepstatin A). The cells were scraped off the plates and then lysed (on ice) in a sonicator (2×) using 10 seconds off/110 seconds on cycles.
# as §2, with “with” for “with CHAPS, DTT, and urea to a final concentration of”, “w/v), KCl (50 mM), NaCl (0.5 M), ZnCl2 (0.1 mM),” for “w/v),”, “(2” for “(8”, “195” for “70.5”, “PE-induced” for “PE-treated”, “200” for “60”
# The protein solutions were dialyzed extensively against 20 mM MES (2-[N-Morpholino]ethanesulfonic acid) buffer pH 6.0, supplemented with 0.15 M NaCl and 1 mM ZnCl2 to remove excess detergent and urea. […]
# [2] = test system: six protein mixture: Con A, P. sativum lectin, L. culinaris lectin, W. floribunda lectin, Glyceraldehyde 6-phosphate, bovine serum albumin; assay: Solid phase screening of Library 3 with labeled six protein mixture; affinity purification, gel electrophoresis and Edman degradation; assay type: binding; settings: for Identified Protein(s): Library 3 ligand on PEGA6000 resin, six protein mixture
compound,measurement,setting,value
His-Tyr-Pip-Thr-Acm-Abi (HY[Pip′]T[Acm′][Abi]; reading uncertain; also: printed as His-Tyr-Pip-Thr-Acm-Abi),Identified Protein(s),[1],Chain C P27 cyclin A-CDK2 complex: (Cyclin A?) (gi and 2392395); Hypothetical protein XP_154035.
CCOC(=O)C1CCCCC1NC(CCCCN)C(=O)NC(CCCCNC(=O)OC(C)(C)C)C(=O)O (stereo not drawn),Identified Protein(s),basal myocyte protein,Angiotensin converting enzyme (P22967); U2 nuclear ribonuceoprotein zuxiliary factor (gi 2842676).
CC(C)C(NC(CCCCN)C(=O)C[C@@H](C)C(=O)O)C(C)C (stereo partly drawn),Identified Protein(s),basal myocyte protein,Mysoin heavy chain nonmuscular type (AQ62812).
ManS-Gly-ManS-Asp-Asn-Ala ([ManS]G[ManS]DNA; reading uncertain; also: printed as ManS-Gly-ManS-Asp-Asn-Ala),Identified Protein(s),[2],"Con A, P. sativum; also recorded: lectin"
CC(C)C(NC(CCCCN)C(=O)N1CCN(C(=O)OC(C)(C)C)CC1)C(C)C (stereo not drawn),Identified Protein(s),basal myocyte protein,Angiotensin converting enzyme (P22967).
CCCCCCNC(=O)C(CCCCN)NC(CC)CCO (stereo not drawn),Identified Protein(s),basal myocyte protein,"Myosine heavy chain, nonmuscular type (AQ62812); Hypothetical protein E330017A01 (XP-148690.1)."
CCOC(=O)C(CCc1ccccc1)NC(CCCCN)C(=O)N1CCC[C@H]1C(=O)O (stereo partly drawn) [drawing 164],Identified Protein(s),basal myocyte protein,Angiotensin converting enzyme (P22967); U2 nuclear ribonucleoprotein auxxiliary factor (gi 2842676).
GlcNN-Trp-Phe-Asp-Trp-Pro ([GlcNN]WFDWP; reading uncertain),selectivity of binding among the lectins,[2],binds only to Con A and not to the other lectins
same,Identified Protein(s),[2],Con A
Phe-Gua-Asp-Abi-His-Aze,Identified Protein(s),[1],Hypothetical protein XP_043250 (gi 14773490)
Pip-Pal-Pal-Phe-Pya-Pip,Identified Protein(s),[1],"544086) (M); Ribosomal proteins (60s) (gi 21426891); and SPTR (gi 20837095) (M) and Ca2+/Calmodulin activated Myosin light chain kinase (gi and 284660) (LA, MA); Regulator of G-Protein Signalling and (RGS14) variant (gi 2708808) ATP Synthase component and (subunit e) (gi 258788) (M);; Cytochrome P450 (gi"
ManN-Phe-Trp-Ser-Lys-His ([ManN]FWSKH; reading uncertain; also: printed as ManN-Phe-Trp-Ser-Lys-His),Identified Protein(s),[2],"Con A, P. sativum; also recorded: lectin"
CCC(CCO)NC(CCCCN)C(=O)N1CCN(C(=O)OC(C)(C)C)CC1 (stereo not drawn),Identified Protein(s),basal myocyte protein,Angiotensin converting enzyme (P22967).
Pya-Gua-Pip-Acc-Phe-Pip,Identified Protein(s),[1],NADH dehydrogenase; ATP binding component (gi 18598538); also recorded: (M); Myosin heavy polypeptide 9 (gi 13543854); Histone; also recorded: associated proteins (gi 20893760) (M)
CCOC(=O)C(CCc1ccccc1)NC(CCCCN)C(=O)N[C@@H](C)C(=O)O (stereo partly drawn),Identified Protein(s),basal myocyte protein,Testase 1 or disintegrin 5 containing metalloproteinase domain 24 (gi 31981793); ADP-ribosylation factor like protein 8 (Q96KC2).
